Key:
Assay type in all cases: biochemical
ROCK I (AA 6-553) = ROCK I (AA 6-553) (Homo sapiens, UniProt Q13464); experiment: ROCK inhibition assay, coupled enzyme system ("Enzyme"); details: enzyme-linked assay; average Ki if more than one determined
Description: Reactions were carried out in a solution containing 100 mM HEPES (pH 7.5), 10 mM MgCl2, 25 mM NaCl, 2 mM DTT and 1.5% DMSO.
(§1) If more than one value of Ki has been determined, the average Ki is indicated. If no value is indicated, then the Ki was not determined.

ROCK = ROCK (Homo sapiens, UniProt Q13464); experiment: ROCK radioactive assay ("33P"); details: radioactive assay; average Ki if more than one determined; read-out: ROCK 33P Ki
Chain of ROCK (Q13464 whole entry): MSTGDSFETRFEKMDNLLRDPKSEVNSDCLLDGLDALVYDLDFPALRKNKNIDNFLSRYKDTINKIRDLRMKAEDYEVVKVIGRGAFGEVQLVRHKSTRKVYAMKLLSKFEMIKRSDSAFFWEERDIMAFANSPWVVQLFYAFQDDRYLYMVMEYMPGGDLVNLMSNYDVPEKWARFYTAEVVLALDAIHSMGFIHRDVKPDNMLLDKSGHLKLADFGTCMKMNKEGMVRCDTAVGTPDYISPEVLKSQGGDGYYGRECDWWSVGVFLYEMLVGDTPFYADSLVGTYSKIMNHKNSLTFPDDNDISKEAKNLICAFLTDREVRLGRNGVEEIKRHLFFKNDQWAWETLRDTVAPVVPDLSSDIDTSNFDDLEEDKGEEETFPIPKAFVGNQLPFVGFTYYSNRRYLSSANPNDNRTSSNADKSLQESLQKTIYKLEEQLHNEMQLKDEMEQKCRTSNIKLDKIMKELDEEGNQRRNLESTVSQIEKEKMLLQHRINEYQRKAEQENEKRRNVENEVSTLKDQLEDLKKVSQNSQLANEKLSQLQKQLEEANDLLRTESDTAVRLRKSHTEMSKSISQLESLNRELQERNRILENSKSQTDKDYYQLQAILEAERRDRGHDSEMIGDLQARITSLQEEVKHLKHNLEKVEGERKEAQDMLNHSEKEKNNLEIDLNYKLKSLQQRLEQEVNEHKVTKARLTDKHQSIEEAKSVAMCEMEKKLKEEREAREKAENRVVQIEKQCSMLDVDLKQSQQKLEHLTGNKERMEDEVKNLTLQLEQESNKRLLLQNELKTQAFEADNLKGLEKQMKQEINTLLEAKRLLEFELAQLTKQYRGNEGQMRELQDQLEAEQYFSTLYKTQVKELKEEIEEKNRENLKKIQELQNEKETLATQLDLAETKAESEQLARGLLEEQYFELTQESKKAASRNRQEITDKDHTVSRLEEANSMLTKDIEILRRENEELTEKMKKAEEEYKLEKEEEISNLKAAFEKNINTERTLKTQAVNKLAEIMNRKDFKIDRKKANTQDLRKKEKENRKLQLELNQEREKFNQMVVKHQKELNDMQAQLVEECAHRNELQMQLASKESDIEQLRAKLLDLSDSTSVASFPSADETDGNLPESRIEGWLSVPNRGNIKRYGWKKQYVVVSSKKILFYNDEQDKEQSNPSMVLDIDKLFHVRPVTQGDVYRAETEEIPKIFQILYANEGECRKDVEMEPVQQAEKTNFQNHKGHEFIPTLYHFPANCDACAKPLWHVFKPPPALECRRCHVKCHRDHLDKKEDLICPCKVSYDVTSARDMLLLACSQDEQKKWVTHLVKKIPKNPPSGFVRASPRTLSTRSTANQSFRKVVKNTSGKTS
Description: as §1

PKA = PKA (Homo sapiens, UniProt P17612); experiment: PKA inhibition assay, coupled enzyme; details: average Ki if more than one determined
Procedure, shortened: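 Coupled PK/LDH assay following NADH depletion: 18 nM PKA, 50 μM ATP, 80 μM Kemptide in 100 mM HEPES pH 7.5, 10 mM MgCl2, 25 mM NaCl, 1 mM DTT, 3% DMSO, at 30 °C. Compound preincubated 10 min before ATP start; initial rates over 15 min, IC50 and Ki by non-linear regression.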

Chain of ROCK I (AA 6-553) (Q13464 6-553, species assumed): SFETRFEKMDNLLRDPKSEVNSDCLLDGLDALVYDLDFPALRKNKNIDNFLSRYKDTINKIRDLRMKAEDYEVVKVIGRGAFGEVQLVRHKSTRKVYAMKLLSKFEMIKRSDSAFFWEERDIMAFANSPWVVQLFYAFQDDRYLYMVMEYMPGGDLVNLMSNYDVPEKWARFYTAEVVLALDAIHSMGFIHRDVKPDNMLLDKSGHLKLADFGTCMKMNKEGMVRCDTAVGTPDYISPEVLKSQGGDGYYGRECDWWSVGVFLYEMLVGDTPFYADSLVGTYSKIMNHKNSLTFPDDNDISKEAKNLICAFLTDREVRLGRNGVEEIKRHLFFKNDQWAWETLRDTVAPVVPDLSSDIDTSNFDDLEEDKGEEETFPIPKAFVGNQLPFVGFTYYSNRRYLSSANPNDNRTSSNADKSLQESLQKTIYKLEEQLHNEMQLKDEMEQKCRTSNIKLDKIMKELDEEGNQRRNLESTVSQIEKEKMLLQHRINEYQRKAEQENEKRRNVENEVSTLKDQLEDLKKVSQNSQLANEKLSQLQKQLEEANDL

CN1CCN(S(=O)(=O)c2cccc(CC(=O)Nc3nc(-c4c[nH]c5ncccc45)cs3)c2)CC1 [II-51]
Ki (ROCK I (AA 6-553)): < 500 nM | Ki (ROCK): < 500 nM | Ki (PKA): < 500 nM

COc1cccc(CC(=O)Nc2nc(-c3c[nH]c4nccc(Cl)c34)cs2)c1 [II-92]
Ki (ROCK I (AA 6-553)): < 500 nM | Ki (PKA): < 500 nM

CCN(CC)S(=O)(=O)c1cccc(CC(=O)Nc2nc(-c3c[nH]c4nccc(Cl)c34)cs2)c1 [II-93]
Ki (ROCK I (AA 6-553)): 500 to 5000 nM | Ki (PKA): 500 to 5000 nM

CS(=O)(=O)Nc1cccc(CC(=O)Nc2nc(-c3c[nH]c4nccc(Cl)c34)cs2)c1 [II-94]
Ki (ROCK I (AA 6-553)): < 500 nM | Ki (PKA): < 500 nM

O=C(Cc1cccc(OCCCC2CCNCC2)c1)Nc1nc(-c2c[nH]c3nccc(Cl)c23)cs1 [II-95]
Ki (ROCK I (AA 6-553)): < 500 nM | Ki (PKA): < 500 nM

COc1cccc(C2CCCN(c3nc(-c4c[nH]c5ncccc45)cs3)C2=O)c1 (stereo not drawn) [II-96]
Ki (ROCK I (AA 6-553)): < 500 nM | Ki (PKA): < 500 nM

CN(C)CCNS(=O)(=O)c1cccc(CC(=O)Nc2nc(-c3c[nH]c4ncccc34)cs2)c1 [II-97]
Ki (ROCK I (AA 6-553)): < 500 nM | Ki (PKA): < 500 nM

Cc1sc(NC(=O)Cc2ccccc2)nc1-c1c[nH]c2ncccc12 [II-98]
Ki (ROCK I (AA 6-553)): < 500 nM | Ki (PKA): 500 to 5000 nM

COc1cccc(CC(=O)Nc2nc(-c3c[nH]c4ncccc34)c(C)s2)c1 [II-99]
Ki (ROCK I (AA 6-553)): < 500 nM | Ki (PKA): 500 to 5000 nM

Cc1sc(NC(=O)Cc2cccc(NS(C)(=O)=O)c2)nc1-c1c[nH]c2ncccc12 [II-100]
Ki (ROCK I (AA 6-553)): < 500 nM | Ki (PKA): 500 to 5000 nM

Cc1sc(NC(=O)Cc2cccc(S(=O)(=O)N3CCOCC3)c2)nc1-c1c[nH]c2ncccc12 [II-101]
Ki (ROCK I (AA 6-553)): 500 to 5000 nM | Ki (PKA): 500 to 5000 nM

O=C(Cc1ccccc1)Nc1nc(-c2c[nH]c3ncc(Cl)cc23)cs1 [II-102]
Ki (ROCK I (AA 6-553)): < 500 nM | Ki (PKA): < 500 nM

COc1cccc(CC(=O)Nc2nc(-c3c[nH]c4ncc(Cl)cc34)cs2)c1 [II-103]
Ki (ROCK I (AA 6-553)): < 500 nM | Ki (PKA): < 500 nM

CS(=O)(=O)Nc1cccc(CC(=O)Nc2nc(-c3c[nH]c4ncc(Cl)cc34)cs2)c1 [II-104]
Ki (ROCK I (AA 6-553)): < 500 nM | Ki (PKA): 500 to 5000 nM

O=C(Cc1cccc(S(=O)(=O)N2CCOCC2)c1)Nc1nc(-c2c[nH]c3ncc(Cl)cc23)cs1 [II-105]
Ki (ROCK I (AA 6-553)): < 500 nM | Ki (PKA): 500 to 5000 nM

CS(=O)(=O)Nc1cccc(CNC(=O)c2cc(-c3c[nH]c4ncccc34)cs2)c1 [II-106]
Ki (ROCK I (AA 6-553)): < 500 nM | Ki (PKA): < 500 nM

O=C(Cc1cccc(S(=O)(=O)N2CCOCC2)c1)Nc1nc(-c2c[nH]c3ncc(Br)cc23)cs1 [II-107]
Ki (ROCK I (AA 6-553)): < 500 nM | Ki (PKA): 500 to 5000 nM

O=C(Cc1ccc(OCCN2CCNCC2)cc1Cl)Nc1nc(-c2c[nH]c3ncccc23)cs1 [II-108]
Ki (ROCK I (AA 6-553)): < 500 nM | Ki (ROCK): < 500 nM | Ki (PKA): 500 to 5000 nM

CN1CCN(CCOc2ccc(CC(=O)Nc3nc(-c4c[nH]c5ncccc45)cs3)c(Cl)c2)CC1 [II-109]
Ki (ROCK I (AA 6-553)): < 500 nM | Ki (ROCK): < 500 nM | Ki (PKA): 500 to 5000 nM

O=C(Cc1ccc(OCCCN2CCNCC2)cc1Cl)Nc1nc(-c2c[nH]c3ncccc23)cs1 [II-110]
Ki (ROCK I (AA 6-553)): < 500 nM | Ki (ROCK): < 500 nM | Ki (PKA): 500 to 5000 nM

CN1CCN(CCCOc2ccc(CC(=O)Nc3nc(-c4c[nH]c5ncccc45)cs3)c(Cl)c2)CC1 [II-111]
Ki (ROCK I (AA 6-553)): < 500 nM | Ki (ROCK): < 500 nM | Ki (PKA): 500 to 5000 nM

O=C(Cc1cccc(S(=O)(=O)N2CCCCC2)c1)Nc1nc(-c2c[nH]c3ncccc23)cs1 [II-112]
Ki (ROCK I (AA 6-553)): < 500 nM | Ki (PKA): 500 to 5000 nM

CN(c1cccc(CC(=O)Nc2nc(-c3c[nH]c4ncccc34)cs2)c1)S(C)(=O)=O [II-113]
Ki (ROCK I (AA 6-553)): < 500 nM | Ki (PKA): < 500 nM

COc1cccc(CNC(=O)c2csc(-c3c[nH]c4ncccc34)c2)c1 [II-114]
Ki (ROCK I (AA 6-553)): < 500 nM | Ki (ROCK): < 500 nM | Ki (PKA): < 500 nM

CS(=O)(=O)Nc1cccc(CNC(=O)c2ccc(-c3c[nH]c4ncccc34)s2)c1 [II-115]
Ki (ROCK I (AA 6-553)): < 500 nM | Ki (ROCK): < 500 nM | Ki (PKA): < 500 nM

N#CCC(=O)Nc1nc(-c2c[nH]c3ncccc23)cs1 [II-116]
Ki (ROCK I (AA 6-553)): < 500 nM | Ki (ROCK): < 500 nM | Ki (PKA): < 500 nM

CS(=O)(=O)Nc1cccc(CNC(=O)c2csc(-c3c[nH]c4ncccc34)c2)c1 [II-117]
Ki (ROCK I (AA 6-553)): < 500 nM | Ki (ROCK): < 500 nM | Ki (PKA): < 500 nM

O=C(Cc1ccccc1)Nc1nc(-c2c[nH]c3ncc(F)cc23)cs1 [II-118]
Ki (ROCK I (AA 6-553)): < 500 nM | Ki (ROCK): < 500 nM | Ki (PKA): < 500 nM

COc1cccc(CC(=O)Nc2nc(-c3c[nH]c4ncc(F)cc34)cs2)c1 [II-119]
Ki (ROCK I (AA 6-553)): < 500 nM | Ki (ROCK): < 500 nM | Ki (PKA): < 500 nM

CS(=O)(=O)Nc1cccc(CC(=O)Nc2nc(-c3c[nH]c4ncc(F)cc34)cs2)c1 [II-120]
Ki (ROCK I (AA 6-553)): < 500 nM | Ki (ROCK): < 500 nM | Ki (PKA): < 500 nM

O=C(Cc1cccc(S(=O)(=O)N2CCOCC2)c1)Nc1nc(-c2c[nH]c3ncc(F)cc23)cs1 [II-121]
Ki (ROCK I (AA 6-553)): < 500 nM | Ki (ROCK): < 500 nM | Ki (PKA): 500 to 5000 nM

O=C(Cc1ccc(F)cc1F)Nc1nc(-c2c[nH]c3ncc(F)cc23)cs1 [II-122]
Ki (ROCK I (AA 6-553)): < 500 nM | Ki (ROCK): < 500 nM | Ki (PKA): < 500 nM

O=C(Cc1cccc(S(=O)(=O)NCCCN2CCNCC2)c1)Nc1nc(-c2c[nH]c3ncccc23)cs1 [II-123]
Ki (ROCK I (AA 6-553)): < 500 nM | Ki (ROCK): < 500 nM | Ki (PKA): < 500 nM

O=C(Cc1cccc(S(=O)(=O)N2CCC(O)C2)c1)Nc1nc(-c2c[nH]c3ncccc23)cs1 (stereo not drawn) [II-124]
Ki (ROCK I (AA 6-553)): < 500 nM | Ki (ROCK): < 500 nM | Ki (PKA): < 500 nM

CN1CCN(CCCNS(=O)(=O)c2cccc(CC(=O)Nc3nc(-c4c[nH]c5ncccc45)cs3)c2)CC1 [II-125]
Ki (ROCK I (AA 6-553)): < 500 nM | Ki (ROCK): < 500 nM | Ki (PKA): < 500 nM

O=C(Cc1cccc(S(=O)(=O)NCCCN2CCOCC2)c1)Nc1nc(-c2c[nH]c3ncccc23)cs1 [II-126]
Ki (ROCK I (AA 6-553)): < 500 nM | Ki (ROCK): < 500 nM | Ki (PKA): < 500 nM

COc1cccc(CC(=O)Nc2ccc(-c3c[nH]c4ncccc34)s2)c1 [II-127]
Ki (ROCK I (AA 6-553)): < 500 nM | Ki (ROCK): < 500 nM | Ki (PKA): < 500 nM

CS(=O)(=O)Nc1cccc(CC(=O)Nc2ccc(-c3c[nH]c4ncccc34)s2)c1 [II-128]
Ki (ROCK I (AA 6-553)): < 500 nM | Ki (ROCK): < 500 nM | Ki (PKA): < 500 nM

O=C(Cc1cccc(S(=O)(=O)N2CCOCC2)c1)Nc1ccc(-c2c[nH]c3ncccc23)s1 [II-129]
Ki (ROCK I (AA 6-553)): < 500 nM | Ki (ROCK): < 500 nM | Ki (PKA): 500 to 5000 nM

— US7514448B2, “Azaindoles useful as inhibitors of rock and other protein kinases” (Vertex Pharmaceuticals Incorporated, priority 2004, dated 2009)
